In patent US10167262B2, “Herbicidal substituted 3-arylpyrazoles” (FMC CORPORATION, priority 2014, dated 2019):

Legend:
Format in all cases: in vivo
[1] = tested on: bermudagrass (Cynodon dactylon); experiment: Test C postemergence greenhouse test, plant response rating 0-100
How it was run: (§1)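 Visual rating vs. controls, 0 (no effect) to 100 (complete control), 13–15 d after postemergence treatment. Potted plants, 1- to 4-leaf stage (2–18 cm), greenhouse-held.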

[2] = tested on: canarygrass (Phalaris minor); experiment: as above
How it was run: as §1

[3] = tested on: cocklebur (common cocklebur, Xanthium strumarium); experiment: as above
How it was run: as §1

[4] = tested on: deadnettle (henbit deadnettle, Lamium amplexicaule); experiment: as above
How it was run: as §1

[5] = tested on: downy bromegrass (Bromus tectorum); experiment: as above
How it was run: as §1

[6] = tested on: green foxtail (Setaria viridis); experiment: as above
How it was run: as §1

[7] = tested on: surinam grass (Brachiaria decumbens); experiment: as above
How it was run: as §1

[8] = tested on: windgrass (Apera spica-venti); experiment: as above
How it was run: as §1

[9] = tested on: winter barley (Hordeum vulgare); experiment: as above
How it was run: as §1

[10] = tested on: woolly cupgrass (Eriochloa villosa); experiment: as above
How it was run: as §1

[11] = tested on: giant foxtail (Setaria faberii); experiment: Test E pre-/postemergence greenhouse test, plant response rating 0-100; settings: Preemergence, scale 0 to 100
[12] = tested on: kochia (Kochia scoparia); experiment: as above; settings: Preemergence, scale 0 to 100
How it was run: (§2)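 Visual control score, 0–100 relative to untreated plants, recorded 14–21 days after spraying. Treatments: preemergence on silt loam seedbeds and postemergence at the 1- to 4-leaf stage, with compound in surfactant-containing solvent.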

[13] = tested on: ragweed (common ragweed, Ambrosia elatior); experiment: as above; settings: Preemergence, scale 0 to 100
How it was run: as §2

[14] = tested on: surinam grass (Brachiaria decumbens); experiment: as above; settings: Preemergence, scale 0 to 100
How it was run: as §2

[15] = tested on: velvetleaf (Abutilon theophrasti); experiment: as above; settings: Preemergence, scale 0 to 100
How it was run: as §2

CCn1cc(C(=O)c2ccccc2)c(-c2cc(Cl)cc(Cl)c2)n1 [Compound 31, [3-(3,5-dichlorophenyl)-1-ethyl-1H-pyrazol-4-yl]phenylmethanone]
Plant response rating, Bermudagrass ([1]; 16 g ai/ha): 0 | Plant response rating (0 to 100), Bermudagrass ([1]; 31 g ai/ha): 0 | Plant response rating (0 to 100), Bermudagrass ([1]; 62 g ai/ha): 0 | Plant response rating (0 to 100), Bermudagrass ([1]; 125 g ai/ha): 0 | Plant response rating, Canarygrass ([2]; 16 g ai/ha): 0 | Plant response rating (0 to 100), Canarygrass ([2]; 31 g ai/ha): 0 | Plant response rating (0 to 100), Canarygrass ([2]; 62 g ai/ha): 0 | Plant response rating (0 to 100), Canarygrass ([2]; 125 g ai/ha): 0 | Plant response rating, Cocklebur ([3]; 16 g ai/ha): 10 | Plant response rating (0 to 100), Cocklebur ([3]; 31 g ai/ha): 20 | Plant response rating (0 to 100), Cocklebur ([3]; 62 g ai/ha): 20 | Plant response rating (0 to 100), Cocklebur ([3]; 125 g ai/ha): 25 | Plant response rating, Deadnettle ([4]; 16 g ai/ha): 0 | Plant response rating (0 to 100), Deadnettle ([4]; 31 g ai/ha): 0 | Plant response rating (0 to 100), Deadnettle ([4]; 62 g ai/ha): 0 | Plant response rating (0 to 100), Deadnettle ([4]; 125 g ai/ha): 10 | Plant response rating, Bromegrass, Downy ([5]; 16 g ai/ha): 0 | Plant response rating (0 to 100), Bromegrass, Downy ([5]; 31 g ai/ha): 0 | Plant response rating (0 to 100), Bromegrass, Downy ([5]; 62 g ai/ha): 0 | Plant response rating (0 to 100), Bromegrass, Downy ([5]; 125 g ai/ha): 0 | Plant response rating, Foxtail, Green ([6]; 16 g ai/ha): 0 | Plant response rating (0 to 100), Foxtail, Green ([6]; 31 g ai/ha): 0 | Plant response rating (0 to 100), Foxtail, Green ([6]; 62 g ai/ha): 0 | Plant response rating (0 to 100), Foxtail, Green ([6]; 125 g ai/ha): 0 | Plant response rating, Surinam Grass ([7]; 16 g ai/ha): 5 | Plant response rating (0 to 100), Surinam Grass ([7]; 62 g ai/ha): 5 | Plant response rating (0 to 100), Surinam Grass ([7]; 125 g ai/ha): 5 | Plant response rating, Windgrass ([8]; 16 g ai/ha): 0 | Plant response rating (0 to 100), Windgrass ([8]; 62 g ai/ha): 0 | Plant response rating (0 to 100), Windgrass ([8]; 125 g ai/ha): 0 | Plant response rating, Barley ([9]; 16 g ai/ha): 0 | Plant response rating (0 to 100), Barley ([9]; 31 g ai/ha): 0 | Plant response rating (0 to 100), Barley ([9]; 62 g ai/ha): 0 | Plant response rating (0 to 100), Barley ([9]; 125 g ai/ha): 0 | Plant response rating, Cupgrass, Woolly ([10]; 16 g ai/ha): 5 | Plant response rating (0 to 100), Cupgrass, Woolly ([10]; 31 g ai/ha): 5 | Plant response rating (0 to 100), Cupgrass, Woolly ([10]; 62 g ai/ha): 5 | Plant response rating (0 to 100), Cupgrass, Woolly ([10]; 125 g ai/ha): 5 | Foxtail, Giant plant response rating ([11]; 62 g ai/ha): 0 | Foxtail, Giant plant response rating ([11]; 125 g ai/ha): 0 | Foxtail, Giant plant response rating ([11]; 250 g ai/ha): 0 | Foxtail, Giant plant response rating ([11]; 500 g ai/ha): 0 | Kochia plant response rating ([12]; 62 g ai/ha): 35 | Kochia plant response rating ([12]; 125 g ai/ha): 25 | Kochia plant response rating ([12]; 250 g ai/ha): 50 | Kochia plant response rating ([12]; 500 g ai/ha): 70 | Ragweed plant response rating ([13]; 62 g ai/ha): 0 | Ragweed plant response rating ([13]; 125 g ai/ha): 35 | Ragweed plant response rating ([13]; 250 g ai/ha): 50 | Ragweed plant response rating ([13]; 500 g ai/ha): 80 | Surinam Grass plant response rating ([14]; 62 g ai/ha): 0 | Surinam Grass plant response rating ([14]; 125 g ai/ha): 0 | Surinam Grass plant response rating ([14]; 250 g ai/ha): 0 | Surinam Grass plant response rating ([14]; 500 g ai/ha): 0 | Velvetleaf plant response rating ([15]; 62 g ai/ha): 65 | Velvetleaf plant response rating ([15]; 125 g ai/ha): 50 | Velvetleaf plant response rating ([15]; 250 g ai/ha): 80 | Velvetleaf plant response rating ([15]; 500 g ai/ha): 80
